Assay results: patent US20160175229A1, “MICROPARTICLES WITH CYCLODEXTRINS HAVING A DUAL LEVEL OF ENCAPSULATION” (LCA DERMATECH, priority 2013, published 2016)

Experiment: In vitro dermal absorption of hesperidin on Franz cells with skin explants (1st experimental part)
Format: in vitro ADME
Conditions: hesperidin 0.5 weight % of sample
Source text: The diffusion of a first active ingredient, hesperidin, in the different layers of the skin has been assessed based on the manner by which it has been applied on the skin, namely: • 1) in the case where the hesperidin has been encapsulated in microparticles according to the invention, and following Example 1 which has been detailed above, • 2) in the case where the hesperidin has been encapsulated in microparticles of polymers, • 3) in the case where the hesperidin has been provided in a free form, • 4) in the case where the hesperidin has been provided in the form of an inclusion complex with a cyclodextrin.
These 4 preparations have constituted 4 samples of cutaneous application of hesperidin. Hesperidin represented 0.5 weight % of the mass of each of these 4 samples.
Tests on these 4 samples have been carried out in accordance with the Directives: SCCS/1358/10 on date of Jun. 22, 2010 <<Basic criteria for the in vitro assessment of dermal absorption of cosmetic ingredient>>, OECD 28 of 2004. OECD being the abbreviation of <<Organization for Economic Co-operation and Development>> and SCCS being the abbreviation of <<Scientific Committee on Consumer Safety>>.
The material that has been used consisted of Franz cells. Skin explants, with an average surface area of 2.54 cm^2 and with a thickness comprised between 1.1 and 1.35 mm, have been used. […]

- amount of hesperidin cumulated in the dermis during 24 hours: 1.98 μg/cm^2
SMILES: COc1ccc([C@@H]2CC(=O)c3c(O)cc(O[C@@H]4O[C@H](CO[C@@H]5O[C@@H](C)[C@H](O)[C@@H](O)[C@H]5O)[C@@H](O)[C@H](O)[C@H]4O)cc3O2)cc1O [hesperidin in a free form, hesperidin]
